Data as given in publication PMC2529273, “Pharmacological Properties of DOV 315,090, an ocinaplon metabolite” (BMC Pharmacology, 2008).
Where “and” joins values, the source holds several entries; their conditions need not be identical. Identical values can stand only once. Like-named read-outs stand apart in the source and are kept apart here.

Columns and labels:
α2β2γ3 GABAA-R = molecular target: T1, α2β2γ3 GABAA-R (Rattus norvegicus, UniProt P23576+P28473); test: biochemical; type: binding
T1 construct: expressed in transfected cells; host or cells: HEK293 (CRL 1573), transient transfection
Description: (§1) HEK293 cells (CRL 1573, American type Culture Collection, Rockville, MD, USA) were cultured in Dulbecco's modified Eagle's medium (D-MEM, Invitrogen, Carlsbad, CA, USA) supplemented with 10% fetal bovine serum (Invitrogen, Carlsbad, CA, USA) and 1% MEM Non-Essential Amino Acids Solution (Invitrogen, Carlsbad, CA, USA). cDNAs encoding rat GABAA-R subunits were in the following vectors: α1 and α5 in pRc/CMV, α2, α3, γ2S and γ3 in pcDNA3 and β2 in pcDNA1. The cells were transiently transfected (5 μg of each cDNA per 100 mm dish) using FuGene™ (Roche Diagnostics Corporation) at a 3:1 FuGene:DNA ratio. […] Forty-eight hours after transfection, cells were washed with ice-cold PBS, harvested and homogenized. Cell homogenates were centrifuged (100,000 g, 25 min) and washed three times by homogenization in ice-cold PBS buffer followed by centrifugation at 100,000 g for 25 min. The final pellets were stored at -20°C until needed.
(§2) The samples were then diluted with 5 ml of ice-cold buffer and filtered under vacuum through glass-fiber filters (GF/B Whatman). Filters were washed 3 times with 5 ml of buffer and the radioactivity was quantitated by liquid scintillation counting in 5 ml of Ecolite scintillation fluid (ICN). Non-specific binding determined in the presence of 100 μM Ro 15–1788 (Sigma-Aldrich) was subtracted from total binding to calculate specific binding. Data were analyzed by non-linear regression (Prism, Graph-Pad software).

α5β2γ3 GABAA-R = molecular target: T2, α5β2γ3 GABAA-R (Rattus norvegicus, UniProt P19969+P28473); test: biochemical; type: binding
T2 construct: expressed in transfected cells; host or cells: HEK293 (CRL 1573), transient transfection
Description: as §1, §2

α1β2γ2S GABAA-R [1] = molecular target: T3, α1β2γ2S GABAA-R (Rattus norvegicus, UniProt P18508+P62813); test: biochemical; type: binding
Description: as §1, §2

α2β2γ2S GABAA-R [2] = molecular target: T4, α2β2γ2S GABAA-R (Rattus norvegicus, UniProt P18508+P23576); test: biochemical; type: binding
Description: as §1, §2

α1β2γ3 GABAA-R = molecular target: T5, α1β2γ3 GABAA-R (Rattus norvegicus, UniProt P28473+P62813); test: biochemical; type: binding
T5 construct: expressed in transfected cells; host or cells: HEK293 (CRL 1573), transient transfection
Description: as §1, §2

α5β2γ2S GABAA-R [3] = molecular target: T6, α5β2γ2S GABAA-R (Rattus norvegicus, UniProt P18508+P19969); test: biochemical; type: binding
Description: as §1, §2

α3β2γ2S GABAA-R [4] = molecular target: T7, α3β2γ2S GABAA-R (Rattus norvegicus, UniProt P18508+P20236); test: biochemical; type: binding
Description: as §1, §2

α1β2γ2S GABAA-R [5] = molecular target: T3, α1β2γ2S GABAA-R; test: cell-based
Description: (§3) cRNAs encoding GABAA-R α1, α2, α3, α5, β2 and γ2S subunits were injected into oocytes from Xenopus laevis. […] GABA (Sigma) was prepared as a 1 M stock solution in ND96. Microelectrodes of 1–3 MΩ when filled with 3 M KCl were used to record from oocytes in a recording chamber continuously perfused with ND-96 buffer solution. During data acquisition, oocytes were clamped at a holding potential of -70 mV. Drugs were applied by perfusion at a rate of approximately 50 μl sec^-1 for 20 s followed by a 120 s wash. […] All experiments were performed at room temperature (22–24°C).
(§4) GABA concentration-response data was obtained for each subunit combination, and the GABA EC10 was determined by nonlinear regression using the logistic equation. This concentration of GABA was used for modulation studies. Peak current measurements were normalized and expressed as a fraction of the peak control current measurements. Control responses to an EC10 concentration of GABA were re-determined after every 2 – 4 applications of modulator + GABA. […] Potentiation data from each oocyte was fitted to the equation Potentiation = Emax × [Drug]/([Drug + EC50) by non-linear regression (Prism, Graph-Pad software). […] Given the lack of consistency of this possible high affinity effect, we have omitted it in fitting our concentration-effect curves. The choice of fitting to a monophasic or biphasic equation had only a small effect on the EC50 for the major component of modulation.
(§5) Rat GABAA-Rs consisting of α1β2γ2S, α2β2γ2S, α3β2γ2S and α5β2γ2S subunits were expressed in Xenopus oocytes. […] Higher concentrations (in parentheses) were excluded from the fit due to a decline in potentiation at higher concentrations.

α2β2γ2S GABAA-R [6] = molecular target: T4, α2β2γ2S GABAA-R; test: cell-based
Description: as §3, §4, §5

α5β2γ2S GABAA-R [7] = molecular target: T6, α5β2γ2S GABAA-R; test: cell-based
Description: as §3, §4, §5

in vivo = type: in vivo, rat; conditions: rats, 1 h after administration of ocinaplon 5 mg/kg
Description: At 1 h, corresponding to the time at which the anticonflict effect of ocinaplon was evaluated, the plasma concentration of DOV 315,090 is ~38% of the concentration of parent compound.
Figure 2 Pharmacokinetics of ocinaplon and DOV 315,090. Blood levels of ocinaplon (●,○) and DOV 315090 (▲,△) were determined at various times after i.v. (●,▲) or oral (○,△) administration of 5 mg/kg ocinaplon to rats. […] This animal may have regurgitated a portion of the dose (of the suspension).

α3β2γ2S GABAA-R [8] = molecular target: T7, α3β2γ2S GABAA-R; test: cell-based; type: cell-based
Description: as §3, §4, §5

[9] = [3H]Ro15-1788 displacement, n = 3, read-out: IC50
[10] = mean ± SEM, n = 3, read-out: pIC50 (converted)

T5 sequence (P62813 28-455): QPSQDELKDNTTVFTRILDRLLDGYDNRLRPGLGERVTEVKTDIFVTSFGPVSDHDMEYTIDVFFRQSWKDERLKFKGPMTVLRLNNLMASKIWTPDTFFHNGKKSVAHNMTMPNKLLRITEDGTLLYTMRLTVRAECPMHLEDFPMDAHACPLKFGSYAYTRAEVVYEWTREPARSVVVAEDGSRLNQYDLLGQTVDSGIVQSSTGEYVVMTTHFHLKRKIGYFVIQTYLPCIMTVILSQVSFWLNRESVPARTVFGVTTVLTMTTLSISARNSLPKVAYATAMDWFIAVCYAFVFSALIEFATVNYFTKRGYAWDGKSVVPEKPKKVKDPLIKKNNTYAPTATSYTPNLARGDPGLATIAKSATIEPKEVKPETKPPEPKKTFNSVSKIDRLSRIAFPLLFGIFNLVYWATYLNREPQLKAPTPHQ
T5 sequence (P63138 25-474 partner limits assumed): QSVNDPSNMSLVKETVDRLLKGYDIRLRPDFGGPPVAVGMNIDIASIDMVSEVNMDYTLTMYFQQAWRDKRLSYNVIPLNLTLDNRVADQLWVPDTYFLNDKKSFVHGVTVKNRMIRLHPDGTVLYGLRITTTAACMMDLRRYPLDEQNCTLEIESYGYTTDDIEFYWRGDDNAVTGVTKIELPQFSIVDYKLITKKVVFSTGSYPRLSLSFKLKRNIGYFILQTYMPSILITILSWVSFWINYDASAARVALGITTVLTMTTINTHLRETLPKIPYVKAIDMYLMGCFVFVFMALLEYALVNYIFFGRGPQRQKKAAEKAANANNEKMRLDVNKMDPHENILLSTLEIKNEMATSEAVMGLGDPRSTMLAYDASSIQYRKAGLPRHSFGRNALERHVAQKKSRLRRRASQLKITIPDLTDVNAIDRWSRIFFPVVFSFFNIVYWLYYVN
T5 sequence (P28473 18-467): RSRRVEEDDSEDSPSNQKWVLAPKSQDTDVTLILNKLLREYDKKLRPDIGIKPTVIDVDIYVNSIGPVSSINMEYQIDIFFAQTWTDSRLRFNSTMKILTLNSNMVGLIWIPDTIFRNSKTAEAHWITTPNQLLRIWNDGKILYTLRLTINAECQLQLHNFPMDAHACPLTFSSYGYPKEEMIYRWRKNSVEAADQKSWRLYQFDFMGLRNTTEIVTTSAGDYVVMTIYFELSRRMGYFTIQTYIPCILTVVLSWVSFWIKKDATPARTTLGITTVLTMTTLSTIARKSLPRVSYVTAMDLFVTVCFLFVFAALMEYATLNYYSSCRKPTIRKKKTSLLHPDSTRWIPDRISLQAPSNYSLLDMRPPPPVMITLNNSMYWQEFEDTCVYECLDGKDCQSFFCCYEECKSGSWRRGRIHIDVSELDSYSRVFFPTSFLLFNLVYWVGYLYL
T3 sequence (P62813 28-455): as the sequence (P62813 28-455) above
T3 sequence (P63138 25-474 partner limits assumed): as the sequence (P63138 25-474 partner limits assumed) above
T3 sequence (P18508 39-466): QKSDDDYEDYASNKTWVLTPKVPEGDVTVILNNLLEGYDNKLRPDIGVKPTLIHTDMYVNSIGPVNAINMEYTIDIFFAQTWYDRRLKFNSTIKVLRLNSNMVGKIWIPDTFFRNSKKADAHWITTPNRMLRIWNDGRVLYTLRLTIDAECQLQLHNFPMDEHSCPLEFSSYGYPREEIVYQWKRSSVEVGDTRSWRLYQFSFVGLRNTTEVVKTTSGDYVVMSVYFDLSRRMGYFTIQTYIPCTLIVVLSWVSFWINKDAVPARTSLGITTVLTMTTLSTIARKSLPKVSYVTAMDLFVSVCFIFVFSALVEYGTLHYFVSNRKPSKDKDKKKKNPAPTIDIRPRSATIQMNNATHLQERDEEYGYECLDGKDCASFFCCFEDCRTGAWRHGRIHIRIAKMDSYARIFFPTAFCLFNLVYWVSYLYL
T6 sequence (P19969 32-464 limits assumed): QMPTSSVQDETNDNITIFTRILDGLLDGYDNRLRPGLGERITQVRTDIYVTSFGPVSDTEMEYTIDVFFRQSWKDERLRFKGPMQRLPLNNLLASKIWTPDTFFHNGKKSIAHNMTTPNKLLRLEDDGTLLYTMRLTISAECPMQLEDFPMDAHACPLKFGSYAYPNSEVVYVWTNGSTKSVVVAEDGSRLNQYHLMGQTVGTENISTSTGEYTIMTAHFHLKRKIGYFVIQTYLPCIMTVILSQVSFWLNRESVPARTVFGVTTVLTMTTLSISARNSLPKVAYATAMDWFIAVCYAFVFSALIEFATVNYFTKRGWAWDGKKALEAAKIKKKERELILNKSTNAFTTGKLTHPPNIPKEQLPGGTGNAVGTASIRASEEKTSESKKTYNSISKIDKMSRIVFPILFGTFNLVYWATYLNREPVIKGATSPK
T6 sequence (P63138 25-474 partner limits assumed): as the sequence (P63138 25-474 partner limits assumed) above
T6 sequence (P18508 39-466): as the sequence (P18508 39-466) above
T2 sequence (P19969 32-464 limits assumed): as the sequence (P19969 32-464 limits assumed) above
T2 sequence (P63138 25-474 partner limits assumed): as the sequence (P63138 25-474 partner limits assumed) above
T2 sequence (P28473 18-467): as the sequence (P28473 18-467) above
T1 sequence (P23576 29-451): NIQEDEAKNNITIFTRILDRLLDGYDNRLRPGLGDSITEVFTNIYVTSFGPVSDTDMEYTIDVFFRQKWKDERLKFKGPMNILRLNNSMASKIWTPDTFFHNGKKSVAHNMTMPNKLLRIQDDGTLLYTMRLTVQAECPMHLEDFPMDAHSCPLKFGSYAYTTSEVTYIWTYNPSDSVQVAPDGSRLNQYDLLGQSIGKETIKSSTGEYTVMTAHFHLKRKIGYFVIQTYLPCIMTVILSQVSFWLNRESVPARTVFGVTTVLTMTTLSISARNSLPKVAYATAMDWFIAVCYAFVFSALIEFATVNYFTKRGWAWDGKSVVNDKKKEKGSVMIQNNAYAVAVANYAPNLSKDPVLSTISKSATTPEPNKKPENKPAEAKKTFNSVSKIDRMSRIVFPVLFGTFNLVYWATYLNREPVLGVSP
T1 sequence (P63138 25-474 partner limits assumed): as the sequence (P63138 25-474 partner limits assumed) above
T1 sequence (P28473 18-467): as the sequence (P28473 18-467) above
T4 sequence (P23576 29-451): as the sequence (P23576 29-451) above
T4 sequence (P63138 25-474 partner limits assumed): as the sequence (P63138 25-474 partner limits assumed) above
T4 sequence (P18508 39-466): as the sequence (P18508 39-466) above
T7 sequence (P20236 29-493): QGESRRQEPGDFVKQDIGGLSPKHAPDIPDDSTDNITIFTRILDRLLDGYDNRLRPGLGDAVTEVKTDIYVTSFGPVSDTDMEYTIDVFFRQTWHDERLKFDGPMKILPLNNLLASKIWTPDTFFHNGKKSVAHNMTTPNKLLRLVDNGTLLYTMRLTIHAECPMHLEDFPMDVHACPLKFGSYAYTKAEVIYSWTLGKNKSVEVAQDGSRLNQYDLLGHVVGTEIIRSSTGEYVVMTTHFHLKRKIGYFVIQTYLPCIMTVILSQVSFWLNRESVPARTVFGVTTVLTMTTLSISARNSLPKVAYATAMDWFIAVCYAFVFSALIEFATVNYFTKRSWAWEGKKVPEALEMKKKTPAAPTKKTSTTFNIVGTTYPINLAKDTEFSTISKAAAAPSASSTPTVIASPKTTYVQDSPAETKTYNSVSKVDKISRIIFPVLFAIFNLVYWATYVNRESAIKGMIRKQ
T7 sequence (P63138 25-474 partner limits assumed): as the sequence (P63138 25-474 partner limits assumed) above
T7 sequence (P18508 39-466): as the sequence (P18508 39-466) above

## O=C(c1ccccn1)c1cnn2c(-c3cc[n+]([O-])cc3)ccnc12 [DOV 315,090, (7-(1-Oxidopyridin-1-ium-4-yl)pyrazolo [1,5-a]pyrimidin-3-yl)(pyridin-2-yl)methanone]
α2β2γ3 GABAA-R; [3H]Ro15-1788 displacement, α2β2γ3, n = 3, read-out: IC50
  IC50: 20 µM
α2β2γ3 GABAA-R; α2β2γ3, mean ± SEM, n = 3, read-out: pIC50 (converted)
  IC50: 19.1 µM
α2β2γ3 GABAA-R; α2β2γ3, ratio to diazepam IC50
  IC50/DZ IC50: 120
α2β2γ3 GABAA-R; α2β2γ3, ratio to ocinaplon IC50
  IC50/OC IC50: 0.98
α5β2γ3 GABAA-R; [3H]Ro15-1788 displacement, α5β2γ3, n = 3, read-out: IC50
  IC50: 27 µM
α5β2γ3 GABAA-R; α5β2γ3, mean ± SEM, n = 3, read-out: pIC50 (converted)
  IC50: 26.3 µM
α5β2γ3 GABAA-R; α5β2γ3, ratio to diazepam IC50
  IC50/DZ IC50: 323
α5β2γ3 GABAA-R; α5β2γ3, ratio to ocinaplon IC50
  IC50/OC IC50: 2.59
α1β2γ2S GABAA-R [1]; [9]
  IC50: 7 µM
α1β2γ2S GABAA-R [1]; [10]
  IC50: 6.46 µM
α1β2γ2S GABAA-R [1]; ratio to diazepam IC50
  IC50/DZ IC50: 220
α1β2γ2S GABAA-R [1]; ratio to ocinaplon IC50
  IC50/OC IC50: 1.02
α2β2γ2S GABAA-R [2]; [9]
  IC50: 24 µM
α2β2γ2S GABAA-R [2]; [10]
  IC50: 23.4 µM
α2β2γ2S GABAA-R [2]; ratio to diazepam IC50
  IC50/DZ IC50: 760
α2β2γ2S GABAA-R [2]; ratio to ocinaplon IC50
  IC50/OC IC50: 0.89
α1β2γ3 GABAA-R; [3H]Ro15-1788 displacement, α1β2γ3, n = 3, read-out: IC50
  IC50: 5.5 µM
α1β2γ3 GABAA-R; α1β2γ3, mean ± SEM, n = 3, read-out: pIC50 (converted)
  IC50: 5.37 µM
α1β2γ3 GABAA-R; α1β2γ3, ratio to diazepam IC50
  IC50/DZ IC50: 25
α1β2γ3 GABAA-R; α1β2γ3, ratio to ocinaplon IC50
  IC50/OC IC50: 2.40
α5β2γ2S GABAA-R [3]; [9]
  IC50: 22 µM
α5β2γ2S GABAA-R [3]; [10]
  IC50: 21.4 µM
α5β2γ2S GABAA-R [3]; ratio to diazepam IC50
  IC50/DZ IC50: 790
α5β2γ2S GABAA-R [3]; ratio to ocinaplon IC50
  IC50/OC IC50: 2.24
α3β2γ2S GABAA-R [4]; [9]
  IC50: 9.3 µM
α3β2γ2S GABAA-R [4]; [10]
  IC50: 8.32 µM
α3β2γ2S GABAA-R [4]; ratio to diazepam IC50
  IC50/DZ IC50: 170
α3β2γ2S GABAA-R [4]; ratio to ocinaplon IC50
  IC50/OC IC50: 1.09
α1β2γ2S GABAA-R [5]
  Emax: 192 ± 4%
α1β2γ2S GABAA-R [5]; α1β2γ2S, GABA EC10, number of oocytes in parentheses, read-out: EC50
  EC50: 4.87 µM
α1β2γ2S GABAA-R [5]; α1β2γ2S, ratio to diazepam EC50
  EC50/DZ EC50: 128
α1β2γ2S GABAA-R [5]; α1β2γ2S, ratio to diazepam Emax
  Emax/DZ Emax: 1.33
α1β2γ2S GABAA-R [5]; α1β2γ2S, ratio to ocinaplon EC50
  EC50/OC EC50: 1.66
α1β2γ2S GABAA-R [5]; α1β2γ2S, ratio to ocinaplon Emax
  Emax/OC Emax: 1.45
α2β2γ2S GABAA-R [6]
  Emax: 139 ± 23%
α2β2γ2S GABAA-R [6]; α2β2γ2S, GABA EC10, mean ± SEM, read-out: pEC50 (converted)
  EC50: 12 µM
α2β2γ2S GABAA-R [6]; α2β2γ2S, GABA EC10, number of oocytes in parentheses, read-out: EC50
  EC50: 12.5 µM
α2β2γ2S GABAA-R [6]; α2β2γ2S, ratio to diazepam EC50
  EC50/DZ EC50: 482
α2β2γ2S GABAA-R [6]; α2β2γ2S, ratio to diazepam Emax
  Emax/DZ Emax: 0.88
α2β2γ2S GABAA-R [6]; α2β2γ2S, ratio to ocinaplon EC50
  EC50/OC EC50: 1.37
α2β2γ2S GABAA-R [6]; α2β2γ2S, ratio to ocinaplon Emax
  Emax/OC Emax: 0.92
α5β2γ2S GABAA-R [7]
  Emax: 68 ± 8%
α5β2γ2S GABAA-R [7]; α5β2γ2S, GABA EC10, mean ± SEM, read-out: pEC50 (converted)
  EC50: 9.33 µM
α5β2γ2S GABAA-R [7]; α5β2γ2S, GABA EC10, number of oocytes in parentheses, read-out: EC50
  EC50: 10.1 µM
α5β2γ2S GABAA-R [7]; α5β2γ2S, ratio to diazepam EC50
  EC50/DZ EC50: 405
α5β2γ2S GABAA-R [7]; α5β2γ2S, ratio to diazepam Emax
  Emax/DZ Emax: 0.30
α5β2γ2S GABAA-R [7]; α5β2γ2S, ratio to ocinaplon EC50
  EC50/OC EC50: 2.92
α5β2γ2S GABAA-R [7]; α5β2γ2S, ratio to ocinaplon Emax
  Emax/OC Emax: 0.81
In vivo
  plasma concentration as % of the concentration of parent compound (ocinaplon): ~ 38% and 38%
α3β2γ2S GABAA-R [8]
  Emax: 340 ± 35%
α3β2γ2S GABAA-R [8]; α3β2γ2S, GABA EC10, mean ± SEM, read-out: pEC50 (converted)
  EC50: 10 µM
α3β2γ2S GABAA-R [8]; α3β2γ2S, GABA EC10, number of oocytes in parentheses, read-out: EC50
  EC50: 10.2 µM
α3β2γ2S GABAA-R [8]; α3β2γ2S, ratio to diazepam EC50
  EC50/DZ EC50: 111
α3β2γ2S GABAA-R [8]; α3β2γ2S, ratio to diazepam Emax
  Emax/DZ Emax: 1.46
α3β2γ2S GABAA-R [8]; α3β2γ2S, ratio to ocinaplon EC50
  EC50/OC EC50: 1.27
α3β2γ2S GABAA-R [8]; α3β2γ2S, ratio to ocinaplon Emax
  Emax/OC Emax: ~1.87
